From a melting point compilation (Tetko et al.; mined from patent text by program, amines drawn as free bases though some values may be those of a salt)

SMILES | melting point
O=[N+]([O-])c1ccc(Oc2ccc(C(c3ccc(Oc4ccc([N+](=O)[O-])cc4)cc3)(C(F)(F)F)C(F)(F)F)cc2)cc1 | 150 to 152 °C
O=S(=O)(/C=C/c1ccsc1)CS(=O)(=O)/C=C/c1ccsc1 | 150 to 152 °C
CC(=O)CCCCCCCCc1ccc(O)c(O)c1 | 74 to 76 °C
CNC(=O)NC(=O)C(CC1CCC(O)C1)c1ccc(Cl)c(Cl)c1 (stereo not given) | 82 to 84 °C
COC(=O)CCCOc1cc(C(C)C)c2c(c1)S(=O)(=O)N(COC(=O)c1ccccc1)C2=O | 122 to 124 °C
O=C1NC(c2c[nH]c3ccccc23)C(=O)N1CCCN1CCCCC1 (stereo not given) | 233 to 234 °C
CC(C)c1cc(C(C)C)c(CC(=O)NS(=O)(=O)Oc2c(C(C)C)cc(NCCO)cc2C(C)C)c(C(C)C)c1 | 149 to 152 °C
O=C(c1ccccc1)c1ccc(-c2nc(CCl)co2)cc1 | 138 to 139 °C
N#Cc1c(N2CCN(C(=O)c3ccco3)CC2)c2cc(Cl)ccc2n(Cc2ccccc2)c1=O | 221 °C
CC(=O)c1cc(Oc2ccccc2)c(NS(C)(=O)=O)cc1O | 151 to 153 °C
CC(O)c1nc(N)nc(N)c1-c1ccc(Cl)cc1 (stereo not given) | 159 °C
COc1ccc(-n2cc(CCC(=O)NS(C)(=O)=O)c(-c3ccc(Cl)c(F)c3)n2)cc1Cl | 211 to 212 °C
CCOC(=O)C(=CNc1ncccc1C)C(=O)OCC | 65 to 67 °C
COc1ccc(-c2csnn2)cc1C=O | 156 to 157 °C
Cc1cnc2c(C(N)=O)cnn2c1-c1cccc(C(F)(F)F)c1 | 237 to 239 °C
CSc1nn2c(Cl)cc(CN3CCOCC3)nc2c1S(=O)(=O)c1ccccc1 | 174 to 176 °C
Cc1c(-c2ccc(C[C@H](NC(=O)c3c(Cl)cccc3Cl)C(=O)O)cc2)c(=O)n(C)c(=O)n1C | 225 to 227 °C
Cc1noc([C@@H](Cc2ccccc2)NC(=O)[C@@H](Cc2ccc3ccccc3c2)NC(=O)[C@@H]2CCCN(C(=O)OC(C)(C)C)C2)n1 | 198 to 200 °C
Cc1nc(C)c2c(n1)CN=C(c1ccccc1)c1cc(Cl)ccc1-2 | 121 to 124 °C
COC(=O)C1CC(O)CN1C(=O)c1ccc(OC)cc1 (stereo not given) | 92 °C
CCN(CC)N(C(C)=O)c1nc2cc3nc(N)sc3cc2s1 | 203 to 205 °C
CCc1c(-c2ccc(O)cc2)c2cc(COCCN(C)C)c3cccc1n32 | 141 to 143 °C
COc1nc(C#N)c(C#N)n1C | 192 to 194 °C
CCCCNC(=O)Nc1cccc(-c2ccnc3c(C(=O)c4cccs4)cnn23)c1 | 158 to 160 °C

SMILES | melting point
Nc1cc(F)ccc1C(=O)NCc1ccc(Br)cc1F | 120 to 121 °C
CCNC(=O)c1cccc2[nH]n(C)c(=O)c12 | 192 to 194 °C
O=C(NCc1ccccc1)c1ccnc(N2CCN(Cc3ccc(F)cc3)C2=O)c1 | 99 to 101 °C
N#Cc1cc(Cc2cccc(Cl)c2)ccc1N | 84.5 to 85.5 °C
CC(CCNC1=Nc2ccc(S(=O)(=O)N(C)C)c3cccc1c23)n1ccnc1 (stereo not given) | 221 to 222 °C
CCOC(=O)C(NC(C)=O)(C(=O)OCC)[C@@H]1CC(=O)C[C@H]1N=[N+]=[N-] (relative stereo) | 121 to 122 °C
Cc1cc(Br)cnc1CCCCNC1=NS(=O)N=C1NCc1ccccc1 (stereo not given) | 175 to 176 °C
N#Cc1ccc(C(N)=O)s1 | 222 to 223 °C
CC1(C)CC(=O)c2cc(O)ccc2S1 | 135 to 142 °C
N#Cc1cc(Br)cc2ccc(O)c(Cl)c12 | 148 to 150 °C
Cc1ccc(C)c(S(=O)(=O)n2c(CCCC(=O)O)cc3nc(Cl)ccc32)c1 | 106 to 117 °C
CCc1nc2c(N)nc3cc(OCCNC(=O)OC(C)(C)C)ccc3c2n1CC1CCOCC1 | 200 to 201 °C
O=C(O)c1c(Cl)nc(-c2ccccc2)c2ccccc12 | 208 °C
CCCCN1CCC(n2nc(-c3c(-c4ccccc4)nn4ccccc34)ccc2=O)CC1 | 106 to 108 °C
CC(=O)Nc1ccc(OC(C)=O)c(C(=O)O)c1 | 196 to 198 °C
CCc1nc2cc(NS(C)(=O)=O)c(Cl)cc2n1-c1ccc(CCNC(=O)NS(=O)(=O)c2ccc(C)cc2)cc1 | 101 to 123 °C
CCOC(=O)c1c(C)nc(-c2ccccc2)nc1-c1ccc(F)cc1 | 82 to 94 °C
COc1cc2c(c(OC)c1OC)CN(CCc1ccc([N+](=O)[O-])cc1)CC2 | 110 °C
Cn1nc(OC2c3cc(C#N)ccc3OC(C)(C)C2(C)O)ccc1=O (stereo not given) | 197 to 199 °C
CN(C)S(=O)(=O)n1c(C(F)(F)F)nc2c(Br)cc(C(F)(F)F)cc21 | 147 °C
CCc1cc(Cc2cnc(N)nc2N)cc(CC)c1O | 200 to 202 °C
COc1ccc(C2CCN(C(=O)C(=O)O)CC2)cc1OC1CCCC1 | 112 to 113 °C
O=C(O)C(=O)c1ccc(OCCOc2ccc3ccncc3c2)cc1 | 260 °C
CCOC(=O)C=CNc1oc2ccc(CC)cc2c(=O)c1C=O | 201 to 203 °C

SMILES | melting point
Cc1nnc2n1-c1ccc(C#CCn3c(C)nc4ccccc4c3=O)cc1C(c1ccccc1F)=NC2 | 241 to 244 °C
CN(Cc1ccc(F)cc1)C(=O)c1cnc2c([N+](=O)[O-])cccc2c1Cl | 135 to 137 °C
CCOC(=O)c1cccc2c1C(=O)N(C)Cc1c(C(=O)OCC)ncn1-2 | 136 to 140 °C
Cc1ccccc1C(=O)NC(NC(=NC#N)Nc1cccnc1)C(Cl)(Cl)Cl (stereo not given) | 126 to 128 °C
C1=Cc2ccccc2NN=C1 | 183 to 184 °C
O=C(O)c1cccc2ccc(-c3ccc([N+](=O)[O-])cc3)nc12 | 272 to 274 °C
COC(=O)c1ccc(OCc2ccc3ccccc3n2)cc1C1(c2ccccc2)CC2CCC1C2 (stereo not given) | 106 to 107 °C
COc1cc(COc2nn(CCO)cc2C=O)ccc1OCc1nc(-c2ccco2)oc1C | 149 to 150 °C
COc1ccc(C2(Cn3ccnc3)CC(CNc3ccccc3C)ON2C)cc1 (stereo not given) | 110 to 111 °C
O=C1C(Cc2ccccc2CF)c2ccccc2C12COc1cc3c(cc12)OCCO3 (stereo not given) | 188 to 190 °C
CC(C)n1nc(Br)nc1O | 155 to 157 °C
CC(C)C(NC(=O)N(C)Cc1ccccn1)C(=O)NC(Cc1ccccc1)C(O)C(Cc1ccccc1)NC(=O)C(NC(=O)N(C)Cc1ccccn1)C(C)C (stereo not given) | 70 to 72 °C
CCCNC(=O)C(C)NC(=O)C(C)NC(=O)C(C)NC(=O)OCc1ccccc1 (stereo not given) | 268 to 269 °C
O=Cc1ccc(O)c(C=O)n1 | 144 °C
CC(C)c1nc(-c2cccs2)cc(-c2ccc(F)cc2)c1CO | 151 to 153 °C
OCCn1ccc(NC(=S)NCC(F)(F)F)n1 | 145 to 146 °C
CC(=O)OC1CC2=CCC3C4CCC(C(C)CCC=C(C)C)C4(C)CCC3C2(C)C(OC(C)=O)C1 (stereo not given) | 133 to 134 °C
CCOC(=O)n1cc(F)c(N)nc1=O | 190 to 193 °C
CC(C)CCCC(C)CCOc1cc(CO)c(-c2ccccc2)cc1CO (stereo not given) | 112 to 115 °C
C=C(Cc1ccc2c(c1)OCO2)C(=O)O | 121 °C
CC(C)(C)OC(=O)NN(C[C@H](O)[C@H](Cc1ccccc1)NC(=O)OCc1ccccc1)C1CCCCC1 | 142 to 143 °C
COC(=O)C=Cc1ccc2[nH]c(C)cc2c1 | 172 to 173 °C
